# Literature values, collected in patent publication US20170369677A1, “MATERIALS FREE OF ENDOCRINE DISRUPTIVE ACTIVITY” (CertiChem, Inc., priority 2006, published 2017).
# Like-named read-outs stand apart in the source and are kept apart here.
# What was measured:
# [1] = system: ER; details: statement in words
# [2] = statement in words
# [3] = recommended daily dietary allowance for these antioxidants
# [4] = system: snails, fish, frogs, and rodents
# [5] = for Carcinogenic or Other Toxic Effects: common pigments used in plastic formulations, Table P-3
Compound,estrogenic or androgenic activity [2],ADI [3] [mg/kg],other results
"CC(C)(C)c1cc(Cc2cc(C(C)(C)C)c(O)c(C(C)(C)C)c2)cc(C(C)(C)C)c1O [4,4′-methylenebis (2,6-di-t-butylphenol)]",,,ER binding activity observed [1]: lack of binding activity
"C[C@]12CC[C@@H]3c4ccc(O)cc4CC[C@H]3[C@@H]1CC[C@@H]2O [17β-estradiol (E2), 17β-estradiol, reference compound]",strong estrogen,,
"COc1ccc(O)c(C(C)(C)C)c1 [BHA, Butylated hydroxyanisole]",,0 to 0.5,
"Cc1cc(C(C)(C)C)c(O)c(C(C)(C)C)c1 [BHT, Butylated hydroxytoulene]",has estrogenic activity,0 to 0.125,
CC(C)(c1ccc(O)cc1)c1ccc(O)cc1 [Bisphenol A],deleterious estrogenic activity,,dose at which deleterious developmental changes have been reported [4]: 0.5 to 2 µg/kg/day; dose at which deleterious developmental changes have been reported ([4]; listed as bisphenol A): 0.5 to 2 µg/kg/day; levels in human umbilical cords: 0.2 to 2 µg/kg
CC(C)CCC[C@@H](C)[C@H]1CC[C@H]2[C@@H]3CC=C4C[C@@H](O)CC[C@]4(C)[C@H]3CC[C@]12C [Cholesterol],little or no known estrogenic or androgenic activity,,
"C[C@]12CCC(=O)C[C@@H]1CC[C@@H]1[C@@H]2CC[C@]2(C)[C@@H](O)CC[C@@H]12 [DHT, 5a-dihydrotestosterone, reference compound]",strong androgen,,
C=C [Ethylene],no known estrogenic activity or other deleterious effects,,
"[C-]#N.[C-]#N.[C-]#N.[C-]#N.[C-]#N.[C-]#N.[Fe+2].[Fe+3].[NH4+] [Ferric amonimum, ferric amonimum ferrocyanide]",,,Carcinogenic or Other Toxic Effects [5]: Yes
[O]=[Mo](=[O])([O-])[O-].[Pb+2] [Lead molybdate],,,Carcinogenic or Other Toxic Effects [5]: Yes
CCCOC(=O)c1cc(O)c(O)c(O)c1 [Propyl gallate],,0 to 2.5,
"CC(C)(C)c1cc(O)ccc1O [TBHQ, Tert-Butylhydroquinone]",,0 to 0.2,
"O=C(O)c1ccc(C(=O)O)cc1 [Terephthalic, terephthalic acid]",deleterious estrogenic activity,,
C=CCl [Vinylchloride],,,toxic effects stated in text ([5]; statement in words): other toxic effects
CC(=O)[C@H]1CC[C@H]2[C@@H]3CCC4=CC(=O)CC[C@]4(C)[C@H]3CC[C@]12C [progesterone],"androgenic, but no known estrogenic, activity",,
Tocopherols,,0.15 to 2,
